The text below walks through data of US12637424B2, “Pharmaceutical salt of an arylpyrrole derivative” (SENTINEL ONCOLOGY LIMITED, priority 2020, dated 2026).

Assay type in all cases: cell-based
The test system of one test is U87MG cells. In words: Mitotic phenotype classification. Particulars: 0.03 μM, 24 hours. Here is the method: Distinct mitotic phenotypes are induced following inhibition of PLK1 and PLK4 in cells. […] Centriole assembly is controlled by PLK4, with inhibitors inducing a multipolar spindle phenotype due to centrosome defects which results in abnormal cyokinesis (Wong et al., 2015. Science 348(6239); 1155-1160). Cells were plated at 10 000/well in 96-well plates and incubated overnight. The following day atropisomer A-2 stocks in DMSO were diluted in medium then added to cells with a maximum final DMSO concentration on cells of 0.2%. Cells were incubated with the compound for 24 hours then fixed in 3.7% formaldeyde. Cells were permeabilised with 0.1% Triton X-100 then incubated with anti-phospho-histone H3 (Ser10) antibody (Abcam ab5176). The cells were washed with PBS then incubated with AlexaFluor 488 labelled goat anti-rabbit IgG (Invitrogen A11034) in the presence of 4 ug/ml Hoechst 33342 (Invitrogen H3570). Cells were washed in PBS then imaged on an Arrayscan VTi HCS instrument (Thermo Fisher) using the Target Activation V4 Bioapplication. A user-defined threshold was applied to identify mitotic cells based on the intensity of phospho-histone H3 staining. In a separate study, following the above protocol but using single compound concentrations of 0.03 μM for each of atropisomer A-1 and atropisomer A-2, the frequency of observed mitotic phenotypes in U87MG cells was manually assessed and classified into the following phenotypes: non-congressed chromosomes, multipolar spindles/abnormal cytokinesis, monopolar spindles, normal prometaphase, normal metaphase for each of A-1 and A-2.

For test [1], the system named is HeLa cells stably expressing a Centrin1-GFP fusion protein. In words: Centriole number (Centrin1-GFP) assay. Particulars: 0.02 μM, 72 hours. Here is the method: The effect of A-2 on centrosome function was therefore investigated further. HeLa cells stably expressing a Centrin1-GFP fusion protein were seeded into 96-well plates overnight. Cells were treated with atropisomer A-2 (at a concentration of 0.02 μM in DMSO) or DMSO control for 72 hours and then imaged using a fluorescence microscope. Multiple cell fields were captured for each treatment condition, and the images were subsequently analysed manually. Centrin1-GFP specifically marks centrioles as discrete foci, and therefore can be used to quantitate centriole number per cell. Thus, for each treatment condition, 100 cells were analysed and the number of centrioles present in each cell was recorded. The data were then separated into bins (no centrioles, 1 centriole, 2 centrioles, and greater than 2 centrioles) and are shown in FIG. 11.

A further test has as its system U87MG. Nature of the test: Mitotic index (phospho-histone H3) assay. Conditions: Homo sapiens, U-87 MG; % mitotic cells (pH3-positive), 24 hours. An excerpt: (§1) Inhibiting the ability of PLK1 and PLK4 to bind to their partners through their PBDs is known to cause cells to arrest in mitosis. Experimentally, this can be measured by assessing the number of cells which are in mitosis at a certain time after treatment with a test compound by immunofluorescent detection of phosphorylated Histone H3 (pH3), a mark which is only present in mitotic cells. PLK1/4-PBD inhibitors are expected to cause a dose-dependent increase in pH3-positive cells, which is reported as Mitotic Index (MI)—the percentage of cells which, at a given time, are positive for this mitotic mark. Cells were plated at 10 000/well in 96-well plates and incubated overnight. The following day atropisomer A-2 stocks in DMSO were diluted in medium then added to cells with a maximum final DMSO concentration on cells of 0.2%. Cells were incubated with the compound for 24 hours then fixed in 3.7% formaldeyde. Cells were permeabilised with 0.1% Triton X-100 then incubated with anti-phospho-histone H3 (Ser10) antibody (Abcam ab5176). The cells were washed with PBS then incubated with AlexaFluor 488 labelled goat anti-rabbit IgG (Invitrogen A11034) in the presence of 4 ug/ml Hoechst 33342 (Invitrogen H3570). Cells were washed in PBS then imaged on an Arrayscan VTi HCS instrument (Thermo Fisher) using the Target Activation V4 Bioapplication. […]

A further test deals with HeLa. In words: Mitotic index (phospho-histone H3) assay. Conditions: Homo sapiens, % mitotic cells (pH3-positive), 24 hours.
Description: as §1

Test [2] concerns HeLa cells engineered to inducibly express oncogenic KRasG12V. In words: Wild-type versus KRAS HeLa cell viability (Cell Titre Blue). Particulars: Homo sapiens, KRAS G12V transgene, 72 hours. Here is the method: (§2) Thus, atropisomer A-2 was tested on HeLa cells engineered to inducibly express wild-type or oncogenic […] transgenes using the FLP-in/T-Rex system (Invitrogen). Cells were plated, and then treated with or without doxycycline to induce transgene expression, and then treated with serially-diluted atropisomer A-2. After 72 hours of incubation, cell viability was assessed using the Cell Titre Blue reagent (Promega) and a BMG Pherastar plate reader. The effect of PBD inhibition on cell viability with either wild-type or oncogenic G12V KRAS was assessed using GraphPad Prism.

Test [3] has as its system HeLa cells engineered to inducibly express wild-type KRAS. The description is as above. Particulars: Homo sapiens, wild-type KRAS transgene, 72 hours, read-out: WT GI50. Here is the method: as §2

In the case of `CN(C)CCNC(=O)c1ccc(-c2ccc(-c3ccc(Cl)cc3)n2-c2ccccc2C(F)(F)F)cc1` (single isomer, unassigned; atropisomer a) [Atropisomer A-1], in the test on U87MG cells, the “cells with abnormal cytokinesis” value came to 24%, the “cells with non-congressed chromosomes” value is recorded as “No evidence” and the “cells with normal mitotic phenotype” value was determined as 76%.
In general, EC50 refers to the concentration at which the effect is half-maximal. A higher EC50 goes with lower potency in that assay. One may read the GI50 as the concentration that inhibits growth by half. Take `CN(C)CCNC(=O)c1ccc(-c2ccc(-c3ccc(Cl)cc3)n2-c2ccccc2C(F)(F)F)cc1` (single isomer, unassigned) [Atropisomer A-2]: in test [1], the “effect on centriole number per cell” value is recorded as “evidence of PLK4 inhibition phenotypes”. For the same molecule, the figures for the EC50 in the test with U87MG and in the test on HeLa were 90 nM and 30 nM, respectively. The GI50 in test [2] came out at 2.08 nM; in test [3], 3.01 nM.
